Source: PubChem BioAssay (NCI)
“And” between values parts separate entries of the source, which are not always exact repeats. Equal entries are not always repeated.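 Results reflect a 48-hour exposure of cells in 96-well plates to compound at five concentrations. Here, GI50 denotes the concentration required for 50% inhibition of growth. TGI: concentration producing complete growth inhibition.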

Columns and labels:
Experiment in all cases: NCI anticancer screen, dose series, 48 h
BT-549 breast = tested on: BT-549 breast
NCI-H460 lung = tested on: NCI-H460 lung
KM12 colon = tested on: KM12 colon
SF-268 CNS = tested on: SF-268 CNS
SF-295 CNS = tested on: SF-295 CNS
HOP-92 NSCLC = tested on: HOP-92 NSCLC
SN12C renal = tested on: SN12C renal
MOLT-4 leukemia = tested on: MOLT-4 leukemia
SR leukemia = tested on: SR leukemia
ACHN renal = tested on: ACHN renal

Row | SMILES | GI50 (BT-549 breast) | TGI (BT-549 breast) | GI50 (NCI-H460 lung) | TGI (NCI-H460 lung) | GI50 (KM12 colon) | TGI (KM12 colon) | GI50 (SF-268 CNS) | TGI (SF-268 CNS) | GI50 (SF-295 CNS) | TGI (SF-295 CNS) | GI50 (HOP-92 NSCLC) | TGI (HOP-92 NSCLC) | GI50 (SN12C renal) | TGI (SN12C renal) | GI50 (MOLT-4 leukemia) | TGI (MOLT-4 leukemia) | GI50 (SR leukemia) | TGI (SR leukemia) | GI50 (ACHN renal) | TGI (ACHN renal)
1 | CCCCCCCCCCCCOC1C(CNC(=O)C2OC3OC(C)(C)OC3C2NC(=O)CN2CCCCCC2)OC2OC(C)(C)OC21 (stereo not drawn) | 9.06 µM | 22.1 µM | 5.19 µM | 18.4 µM | 5.44 µM | 19.1 µM | 5.27 µM | 20.8 µM | 6.75 µM | 20.4 µM | 9.4 µM | 22.8 µM | 9.64 µM | 24.6 µM | 3.12 µM | 9.85 µM | 2.44 µM | 4.91 µM | 10.7 µM | 25.3 µM
2 | O=C(O)c1ccc2c(c1)nc(Nc1cccc(Cl)c1)c1ccncc12 | 2.48 µM and 2.29 µM | 10.9 µM and 8.33 µM | 3.48 µM and 4.32 µM | 25.1 µM and > 10 µM | 3.43 µM and 4.43 µM | 18.1 µM and > 10 µM | 3.52 µM and 3.85 µM | > 77.4 µM | 2.74 µM and 3.17 µM | > 42.9 µM | 0.325 µM and 0.445 µM | 3.77 µM and 4.06 µM | 3.88 µM and 3.71 µM | > 100 µM | 3.07 µM and 4.6 µM | 7.4 µM and > 10 µM | 2.04 µM and 2.63 µM | 6.3 µM and 9.2 µM | 3.04 µM and 3.51 µM | > 100 µM
3 | O=C(Oc1ccccc1Cl)c1ccccc1Nc1ccnc(C(F)(F)F)c1 | 0.635 µM | 20.6 µM | 0.422 µM | > 26.2 µM | 0.299 µM | 1.36 µM | 0.71 µM | – | 0.27 µM | 1.09 µM | 0.271 µM | 13.4 µM | 0.289 µM | 2.57 µM | 0.258 µM | – | 0.0282 µM | > 100 µM | 0.281 µM | 0.808 µM
4 | CC(=O)[O][Hg][c]1ccccc1 | 0.453 µM | 1.66 µM | 0.934 µM | 3.82 µM | 1.6 µM | 3.04 µM | 1.14 µM | 2.64 µM | 1.61 µM | 3.57 µM | 0.299 µM | 0.92 µM | 0.234 µM | 0.644 µM | 0.19 µM | 0.551 µM | 0.143 µM | 0.537 µM | 1.23 µM | 2.61 µM
5 | CCc1nc(N)nc(N)c1-c1ccc(NCCc2ccccc2)c([N+](=O)[O-])c1 | – | 42.9 µM | – | > 53.9 µM | – | > 57 µM | – | > 62.5 µM | – | 32.9 µM | – | 35.7 µM | – | > 71.3 µM | – | 33.3 µM | – | 24 µM | – | 37 µM
6 | CN(C[C@@H]1COCCO1)S(=O)(=O)Nc1ccc2ccc3ncc(-c4cnn(C)c4)cc3c(=O)c2c1 | 2.01 µM | > 100 µM | 4.26 µM | > 100 µM | 0.369 µM | > 100 µM | 4.26 µM | > 100 µM | 0.632 µM | > 34.2 µM | 2.25 µM | > 30.3 µM | 3.53 µM | > 100 µM | 4.08 µM | > 91.3 µM | 3.05 µM | > 100 µM | 2.82 µM | > 100 µM
7 | COc1ccc(C(=O)c2cc3c(N)c(C(=O)Nc4cccc(Cl)c4C)sc3nc2C)cc1 | 0.25 µM | > 25 µM | 0.0917 µM | > 25 µM | 0.106 µM | > 25 µM | 0.419 µM | > 25 µM | 0.0833 µM | > 25 µM | 0.292 µM | 6.67 µM | 0.155 µM | > 25 µM | 0.153 µM | > 25 µM | 0.0613 µM | 0.511 µM | 0.202 µM | > 25 µM
8 | CCN1C(=O)N(c2ccccc2)C2NN=c3s/c(=C4\C(=O)N(C(C)C)c5ccccc54)c(=O)n3C21 (stereo not drawn) | 1.8 µM | 18.9 µM | 1.16 µM | > 38.9 µM | 0.977 µM | > 100 µM | 2.1 µM | > 100 µM | 0.737 µM | 4.76 µM | 1.44 µM | > 43.5 µM | 1.86 µM | > 100 µM | 1.58 µM | > 100 µM | 0.553 µM | > 100 µM | 1.5 µM | > 57.9 µM
9 | COc1ccc2c(c1)[n+](=O)c(C(=O)/C=C/c1cc(OC)c(OC)c(OC)c1)c(C)n2[O-] | 12.6 µM | 28.9 µM | 23 µM | > 100 µM | > 100 µM | > 100 µM | 8.15 µM | 40.4 µM | 27.1 µM | > 100 µM | 12.3 µM | 30.8 µM | 28.2 µM | > 100 µM | > 100 µM | > 100 µM | 58.4 µM | > 100 µM | 13.5 µM | 28.8 µM
10 | C#CCOc1cccc(Nc2ncnc3ccc(NC(=O)CCl)cc23)c1 | 1.66 µM | 10.1 µM | 0.0723 µM | 3.08 µM | 0.776 µM | 10.6 µM | 0.674 µM | 10.3 µM | 2.29 µM | 19.8 µM | 2.9 µM | 16.9 µM | 0.3 µM | > 79.8 µM | 0.0864 µM | > 89.5 µM | 0.0743 µM | 17.9 µM | 0.253 µM | 7.73 µM
11 | CCCCCC/C=C\CCCCCCCCCC1=CC(=O)C=C(OC)C1=O | – | 13.1 µM | – | 11.1 µM | – | 19.2 µM | – | 19.3 µM | – | 13.2 µM | – | 8.05 µM | – | 14.4 µM | – | > 100 µM | – | 20.2 µM | – | 11.6 µM
12 | CCCCn1sc(=O)n(Cc2ccc(CNC(=O)OCc3ccc4c(Br)cc(Br)c(O)c4n3)cc2)c1=O | 0.406 µM | > 100 µM | 0.395 µM | > 100 µM | 0.374 µM | > 24.4 µM | 1.05 µM | > 100 µM | 4.09 µM | > 24.5 µM | 1.41 µM | > 100 µM | 0.53 µM | > 100 µM | 0.895 µM | > 100 µM | 0.404 µM | > 100 µM | 0.505 µM | > 100 µM
13 | N[C@@H]1CCCN(c2c(/C=C3\SC(=O)NC3=O)cccc2-c2ccccc2)C1 | 11.5 µM | 24.1 µM | 16.9 µM | 35.3 µM | 14.2 µM | 28.9 µM | 16.1 µM | 33.2 µM | 3.57 µM | 15.9 µM | 3.17 µM | 20.1 µM | 14.4 µM | 29.5 µM | 14.7 µM | 45.6 µM | 4.64 µM | 26.2 µM | 14.4 µM | 29.5 µM
14 | O=C(NCCCCCCCCNC(=O)c1cccc2ccccc12)c1cccc2ccccc12 | – | > 100 µM | – | > 100 µM | – | > 100 µM | – | > 81.8 µM | – | > 56.1 µM | – | 20.4 µM | – | > 100 µM | – | > 100 µM | – | > 100 µM | – | 60.8 µM
15 | COc1ccc(C(=O)/C=C/c2ccc(OCC(=O)N3CCN(c4ccccc4)CC3)cc2)cc1 | – | > 77.3 µM | – | > 100 µM | – | > 100 µM | – | > 100 µM | – | 84.7 µM | – | 51.3 µM | – | > 100 µM | – | > 100 µM | – | > 60.4 µM | – | > 100 µM
16 | Cn1c(=S)c2[nH]c(SCCN3CCCC3)nc2n(C)c1=O | – | > 100 µM | – | > 100 µM | – | > 100 µM | – | > 100 µM | – | > 100 µM | – | > 100 µM | – | > 100 µM | – | > 100 µM | – | > 100 µM | – | > 100 µM
17 | C/C(Cc1ccc(Cl)cc1)=C(/c1ccc(Cl)cc1)c1ccc(OCCN(C)C)cc1 | 4.95 µM | 10 µM | 1.22 µM | 4.49 µM | 4.16 µM | 8.95 µM | 5.01 µM | 10.1 µM | 5.5 µM | 10.3 µM | 1.62 µM | 6.48 µM | 4.18 µM | 8.59 µM | 4.01 µM | 10 µM | 0.991 µM | 3.81 µM | 5.12 µM | 9.56 µM
18 | O=C1/C(=C/c2ccccc2)CN(C(=O)OCc2ccccc2)C/C1=C\c1ccccc1 | – | 33.2 µM | 5.47 µM | > 46.4 µM | 2.68 µM | 14.8 µM | – | 30.7 µM | 3.63 µM | 26.7 µM | – | > 100 µM | – | 22.7 µM | 2.18 µM | 7.49 µM and 19 µM | – | 12.3 µM | – | 25.7 µM
19 | Cc1nc2n(c(=O)c1CCN1CCC(c3noc4cc(F)ccc34)CC1)CCCC2 | > 50 µM | > 50 µM | > 50 µM | > 50 µM | > 50 µM | > 50 µM | > 50 µM | > 50 µM | > 50 µM | > 50 µM | > 50 µM | > 50 µM | > 50 µM | > 50 µM | > 50 µM | > 50 µM | > 50 µM | > 50 µM | > 50 µM | > 50 µM
20 | Nc1nc(N)c2nc(CNc3ccc(C(=O)NC(CCCNC(=O)c4ccccc4C(=O)O)C(=O)O)cc3)cnc2n1 (stereo not drawn) | – | > 100 µM | 0.00045 µM | > 100 µM | < 0.01 µM and 0.00297 µM | > 100 µM | – | > 100 µM | < 0.01 µM and 0.00332 µM | – | < 0.01 µM and 0.0274 µM | – | 0.00227 µM | > 100 µM | 0.00353 µM | > 100 µM | 0.000424 µM | > 100 µM | 0.00181 µM | > 100 µM
21 | O=C1CCc2c(sc3[nH]c(=S)n(Cc4ccccc4)c(=O)c23)C1 | 1.82 µM | 7.35 µM | 3.64 µM | > 100 µM | 1.73 µM | 6.56 µM | 3.55 µM | > 100 µM | 2.46 µM | 7.23 µM | 1.92 µM | 5.33 µM | 3.25 µM | > 100 µM | 4.39 µM | > 100 µM | 2.3 µM | 8.22 µM | 3.73 µM | > 100 µM
